# Laboratory results published in publication PMC6469177, “[^177Lu]Lu-PSMA-617 Salivary Gland Uptake Characterized by Quantitative In Vitro Autoradiography” (Pharmaceuticals, 2019).
# What was measured:
# [1] = molecular target: T1, prostate-specific membrane antigen (PSMA) (Sus scrofa, UniProt O77564); test: radioligand competition with […]Lu-PSMA-617, autoradiography on pig salivary gland tissue
# T1 construct: gene FOLH1; pig salivary gland tissue cryosections
# [2] = molecular target: T1, prostate-specific membrane antigen (PSMA); test: single-concentration ([…]) blocking of […]Lu-PSMA-617 binding, autoradiography
# [3] = molecular target: T2, prostate-specific membrane antigen (PSMA) (Homo sapiens, UniProt Q04609); test: blocking of […]Lu-PSMA-617 binding with […] 2-PMPA, autoradiography
# T2 construct: gene FOLH1
# T2 sequence (Q04609 whole entry): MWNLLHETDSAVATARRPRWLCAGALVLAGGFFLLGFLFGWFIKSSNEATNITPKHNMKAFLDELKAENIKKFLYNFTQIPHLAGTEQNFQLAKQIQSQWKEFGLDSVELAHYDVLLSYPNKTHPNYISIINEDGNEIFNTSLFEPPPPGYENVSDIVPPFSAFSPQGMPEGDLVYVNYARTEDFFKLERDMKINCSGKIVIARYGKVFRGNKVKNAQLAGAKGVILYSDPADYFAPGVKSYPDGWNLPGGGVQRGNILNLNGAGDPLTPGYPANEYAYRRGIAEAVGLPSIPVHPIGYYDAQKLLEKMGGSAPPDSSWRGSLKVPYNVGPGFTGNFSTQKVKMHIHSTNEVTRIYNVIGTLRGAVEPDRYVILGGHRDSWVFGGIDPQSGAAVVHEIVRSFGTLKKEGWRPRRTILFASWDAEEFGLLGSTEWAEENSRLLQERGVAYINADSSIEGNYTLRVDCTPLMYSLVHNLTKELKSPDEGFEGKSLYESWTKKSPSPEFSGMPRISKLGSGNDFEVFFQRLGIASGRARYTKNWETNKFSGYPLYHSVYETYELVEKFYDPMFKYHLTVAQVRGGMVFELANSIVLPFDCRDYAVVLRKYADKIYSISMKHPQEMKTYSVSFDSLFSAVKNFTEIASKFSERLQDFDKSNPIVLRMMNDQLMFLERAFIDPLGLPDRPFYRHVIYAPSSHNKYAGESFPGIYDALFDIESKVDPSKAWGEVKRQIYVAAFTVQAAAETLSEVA
# T1 sequence (O77564 whole entry): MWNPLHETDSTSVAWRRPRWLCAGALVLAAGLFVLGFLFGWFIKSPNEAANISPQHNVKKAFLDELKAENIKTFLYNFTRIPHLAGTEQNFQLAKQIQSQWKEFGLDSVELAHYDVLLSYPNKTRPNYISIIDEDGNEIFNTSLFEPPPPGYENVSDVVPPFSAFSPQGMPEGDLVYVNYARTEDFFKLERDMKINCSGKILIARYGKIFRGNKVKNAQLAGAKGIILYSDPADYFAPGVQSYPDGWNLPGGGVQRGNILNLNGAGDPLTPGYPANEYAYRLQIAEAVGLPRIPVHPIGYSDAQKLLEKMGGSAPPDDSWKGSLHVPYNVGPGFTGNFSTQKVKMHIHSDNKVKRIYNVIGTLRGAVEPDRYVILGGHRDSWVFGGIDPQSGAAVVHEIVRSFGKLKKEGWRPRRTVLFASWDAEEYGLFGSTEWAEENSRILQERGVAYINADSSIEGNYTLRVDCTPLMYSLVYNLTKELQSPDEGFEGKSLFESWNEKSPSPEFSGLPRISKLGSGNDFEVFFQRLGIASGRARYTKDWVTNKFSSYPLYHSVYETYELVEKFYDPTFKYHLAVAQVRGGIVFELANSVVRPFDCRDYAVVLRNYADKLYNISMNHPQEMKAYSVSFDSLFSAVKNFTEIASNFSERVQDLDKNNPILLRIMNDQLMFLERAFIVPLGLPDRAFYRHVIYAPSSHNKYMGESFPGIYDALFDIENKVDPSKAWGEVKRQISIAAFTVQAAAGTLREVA
Compound,IC50 [1] [nM],"single-concentration (80 μM) blocking of [177Lu]Lu-PSMA-617 binding, autoradiogr [2]","blocking of [177Lu]Lu-PSMA-617 binding with 80 μM 2-PMPA, autoradiography [3]"
O=C(O)CC[C@H](NC(=O)N[C@@H](CCCCNC(=O)[C@H](Cc1ccc2ccccc2c1)NC(=O)[C@H]1CC[C@H](CNC(=O)CN2CCN(CC(=O)O)CCN(CC(=O)O)CCN(CC(=O)O)CC2)CC1)C(=O)O)C(=O)O [PSMA-617],6 ± 0.1,,
"O=C(O)CCC(CP(=O)(O)O)C(=O)O (stereo not drawn) [2-PMPA, 2-Phosphonomethyl pentanedioic acid]",,"Additional blocking with 2-PMPA, a highly potent PSMA-inhibitor, resulted in a reduced uptake of radioligand in the glandular areas","In contrast, LNCaP membrane pellets only showed a negligible non-specific bound fraction."
